# Data as given in publication PMC5578959, “Selective LRRK2 kinase inhibition reduces phosphorylation of endogenous Rab10 and Rab12 in human peripheral mononuclear blood cells” (Scientific Reports, 2017).
# Read-outs that look alike come from different tables or passages of the source.
# Experiments:
# Rab10-pThr73 = assay: Western Blot, HEK293 cells co-expressing HA-Rab10 and LRRK2 variants; format: cell-based, human; settings: 100 nM; HEK293 co-overexpressing HA-Rab10 and LRRK2 WT, G2019S or R1441C
# Procedure: (§1) Plasmids encoding various LRRK2 and Rab GTPase protein variants were transiently expressed in HEK293 cells using Lipofectamine®2000 according to the manufacturer’s instructions (Thermo Fisher Scientific, US).
# (§2) HEK293 cells were plated at a density of 1 × 10^6 cells/well in 6-well plates pre-coated for 1 hr at 37 °C with poly-L-lysin. Subsequent to the transient transfection HEK293 cells were harvested using 1 mL cold Phosphate Buffered Saline (PBS) buffer (Invitrogen, California, US) and subsequently centrifuged at 800 g for 2 minutes. Cell pellets were resuspended and solubilized in 100 µL lysis buffer (50 mM Tris hydrochloride, 1 mM magnesium chloride, 1% Triton, 0.1% sodium dodecyl sulfate (SDS), pH 8.0) on ice for 20 minutes and then centrifuged at 20,000 g for 30 minutes at 4 °C. The solubilized crude cell lysate was size mobility separated by SDS-polyacrylamide gel electrophoresis (SDS-PAGE). LRRK2 was separated on a 3–8% Tris-Acetate gel (NuPAGE® Tris-Acetate Mini Gels, Life Technologies, Paisley, UK) and Rab10 and Rab12 were separated using a NuPAGE® Novex 4–12% Bis-Tris Gel (Invitrogen, California, US). An amount of 10 µg total protein was loaded in each well. Proteins were transferred to immobilon-FL PVDF membranes (Millipore, Billerica, US).
# JAK2 domain2 = test system: T1, JAK2 domain2; assay: KiNativ profiling in human PBMCs; format: binding; settings: Activation Loop
# T1 construct: JAK2 domain2; purchased ActivX Technologies (KiNativ)
# Outline: (§3)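 Selectivity across the kinome was examined with KiNativ after exposing live peripheral blood mononuclear cells to compound at 1 µM and at 0.1 µM.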
# SGK,SGK2,SGK3 = assay: KiNativ profiling in human PBMCs; format: binding; settings: Lys1
# Outline: as §3
# MARK3,MARK4,QIK = assay: KiNativ profiling in human PBMCs; format: binding; settings: Lys1
# Outline: as §3
# Rab12-pSer106 = assay: Western Blot, HEK293 cells co-expressing HA-Rab12 and LRRK2 variants; format: cell-based, human; settings: 100 nM; HEK293 co-overexpressing HA-Rab12 and LRRK2 WT, G2019S or R1441C
# Procedure: as §1, §2
# GAK = test system: T2, GAK; assay: KiNativ profiling in human PBMCs; format: binding; settings: Lys2
# T2 construct: purchased ActivX Technologies (KiNativ)
# BLK = test system: T3, BLK; assay: KiNativ profiling in human PBMCs; format: binding; settings: Activation Loop
# T3 construct: purchased ActivX Technologies (KiNativ)
# GPRK5 = test system: T4, GPRK5; assay: KiNativ profiling in human PBMCs; format: binding; settings: Lys2
# T4 construct: purchased ActivX Technologies (KiNativ)
# MARK4 = test system: T5, MARK4; assay: KiNativ profiling in human PBMCs; format: binding; settings: Lys2
# T5 construct: purchased ActivX Technologies (KiNativ)
# TEC = test system: T6, TEC; assay: KiNativ profiling in human PBMCs; format: binding; settings: Activation Loop
# T6 construct: purchased ActivX Technologies (KiNativ)
# ZC2/TNIK = test system: T7, ZC2/TNIK; assay: KiNativ profiling in human PBMCs; format: binding; settings: Lys1
# T7 construct: purchased ActivX Technologies (KiNativ)
# FYN = test system: T8, FYN; assay: KiNativ profiling in human PBMCs; format: binding; settings: Lys1
# T8 construct: purchased ActivX Technologies (KiNativ)
# MARK3, MARK4 = assay: KiNativ profiling in human PBMCs; format: binding; settings: Lys1
# ROCK1, ROCK2 = assay: KiNativ profiling in human PBMCs; format: binding; settings: Lys2
# CASK = test system: T9, CASK; assay: KiNativ profiling in human PBMCs; format: binding; settings: Lys1
# T9 construct: purchased ActivX Technologies (KiNativ)
# CHED = settings: Lys2
# PKCh = test system: T10, PKCh; assay: KiNativ profiling in human PBMCs; format: binding; settings: Lys1
# T10 construct: purchased ActivX Technologies (KiNativ)
# ATR = test system: T11, ATR; assay: KiNativ profiling in human PBMCs; format: binding; settings: ATP
# T11 construct: purchased ActivX Technologies (KiNativ)
# SRPK1 = test system: T12, SRPK1; assay: KiNativ profiling in human PBMCs; format: binding; settings: Lys2
# T12 construct: purchased ActivX Technologies (KiNativ)
# PKD1, PKD2 = assay: KiNativ profiling in human PBMCs; format: binding; settings: Lys2
# MAP3K3 = test system: T13, MAP3K3; assay: KiNativ profiling in human PBMCs; format: binding; settings: Lys1
# T13 construct: purchased ActivX Technologies (KiNativ)
# PKCd = test system: T14, PKCd; assay: KiNativ profiling in human PBMCs; format: binding; settings: Lys2
# T14 construct: purchased ActivX Technologies (KiNativ)
# MAP2K1 = test system: T15, MAP2K1; assay: KiNativ profiling in human PBMCs; format: binding; settings: Lys2
# T15 construct: purchased ActivX Technologies (KiNativ)
# PCTAIRE2, PCTAIRE3 = assay: KiNativ profiling in human PBMCs; format: binding; settings: Lys1
# SRC = test system: T16, SRC; assay: KiNativ profiling in human PBMCs; format: binding; settings: Lys1
# T16 construct: purchased ActivX Technologies (KiNativ)
# EphA1 = test system: T17, EphA1; assay: KiNativ profiling in human PBMCs; format: binding; settings: Activation Loop
# T17 construct: purchased ActivX Technologies (KiNativ)
# AMPKa1 = test system: T18, AMPKa1; assay: KiNativ profiling in human PBMCs; format: binding; settings: ATP Loop
# T18 construct: purchased ActivX Technologies (KiNativ)
# Outline: as §3
# MAPKAPK3 = test system: T19, MAPKAPK3; assay: KiNativ profiling in human PBMCs; format: binding; settings: ATP Loop
# T19 construct: purchased ActivX Technologies (KiNativ)
# Outline: as §3
# AMPKa1,AMPKa2 = assay: KiNativ profiling in human PBMCs; format: binding
# Outline: as §3
# MST4 = test system: T20, MST4; assay: KiNativ profiling in human PBMCs; format: binding; settings: Lys1
# T20 construct: purchased ActivX Technologies (KiNativ)
# PDHK1 = test system: T21, PDHK1; assay: KiNativ profiling in human PBMCs; format: binding; settings: ATP
# T21 construct: purchased ActivX Technologies (KiNativ)
smiles,measurement,setting,value
Cc1cccc(-c2cc(Nc3ccn(C)n3)nc3[nH]cc(C#N)c23)c1 [Lu AF58786],phosphorylation of Rab10 (pThr73),Rab10-pThr73,no phosphorylation
same,Inhibition,JAK2 domain2; 0.1µM,16.1%
same,Inhibition,JAK2 domain2; 1µM,-3.5%
same,Inhibition,"SGK,SGK2,SGK3; 0.1µM",7.0%
same,Inhibition,"SGK,SGK2,SGK3; 1µM",0.243%
same,Inhibition,"MARK3,MARK4,QIK; 0.1µM",3.0%
same,Inhibition,"MARK3,MARK4,QIK; 1µM",5.7%
same,phosphorylation of Rab12 (pSer106),Rab12-pSer106,statistically significant reduction
Cn1cc(-c2c[nH]c3ncnc(N4CCOCC4)c23)cc1C#N [PFE-360],% Inhibition,GAK; 0.1µM,-12.4%
same,% Inhibition,GAK; 1µM,-36.6%
same,% Inhibition,BLK; 0.1µM,12.4%
same,% Inhibition,BLK; 1µM,-11.6%
same,% Inhibition,GPRK5; 0.1µM,19.3%
same,% Inhibition,GPRK5; 1µM,1.5%
same,% Inhibition,MARK4; 0.1µM,14.8%
same,% Inhibition,MARK4; 1µM,-6.1%
same,% Inhibition,TEC; 0.1µM,-3.8%
same,% Inhibition,TEC; 1µM,9.2%
same,% Inhibition,ZC2/TNIK; 0.1µM,-31.6%
same,% Inhibition,ZC2/TNIK; 1µM,12.3%
same,% Inhibition,FYN; 0.1µM,-23.9%
same,% Inhibition,FYN; 1µM,-19%
same,% Inhibition,"MARK3, MARK4; 0.1µM",0.7%
same,% Inhibition,"MARK3, MARK4; 1µM",3.6%
same,% Inhibition,"ROCK1, ROCK2; 0.1µM",-31.8%
same,% Inhibition,"ROCK1, ROCK2; 1µM",-10.7%
same,% Inhibition,CASK; 0.1µM,4.6%
same,% Inhibition,CASK; 1µM,8.6%
same,% Inhibition,CHED; 0.1µM,4.9%
same,% Inhibition,CHED; 1µM,-1.5%
same,% Inhibition,PKCh; 0.1µM,-10.3%
same,% Inhibition,PKCh; 1µM,-11%
same,% Inhibition,ATR; 0.1µM,-25.8%
same,% Inhibition,ATR; 1µM,10.7%
same,% Inhibition,SRPK1; 0.1µM,12.7%
same,% Inhibition,SRPK1; 1µM,-13.2%
same,% Inhibition,"PKD1, PKD2; 0.1µM",13.1%
same,% Inhibition,"PKD1, PKD2; 1µM",-5.9%
same,% Inhibition,MAP3K3; 0.1µM,18.3%
same,% Inhibition,MAP3K3; 1µM,16.1%
same,% Inhibition,PKCd; 0.1µM,3.5%
same,% Inhibition,PKCd; 1µM,-0.6%
same,% Inhibition,MAP2K1; 0.1µM,-25.9%
same,% Inhibition,MAP2K1; 1µM,6.5%
same,% Inhibition,"PCTAIRE2, PCTAIRE3; 0.1µM",-34%
same,% Inhibition,"PCTAIRE2, PCTAIRE3; 1µM",11.6%
same,% Inhibition,SRC; 0.1µM,-31.8%
same,% Inhibition,SRC; 1µM,-0.3%
same,% Inhibition,EphA1; 0.1µM,-12.8%
same,% Inhibition,EphA1; 1µM,-26.9%
same,% Inhibition,AMPKa1; 0.1µM,-1%
same,% Inhibition,AMPKa1; 1µM,4%
same,% Inhibition,MAPKAPK3; 0.1µM,-5.1%
same,% Inhibition,MAPKAPK3; 1µM,-8.3%
same,% Inhibition,"AMPKa1,AMPKa2; 0.1µM, Lys1",0.8%
same,% Inhibition,"AMPKa1,AMPKa2; 0.1µM, Lys2",-17.7%
same,% Inhibition,"AMPKa1,AMPKa2; 1µM, Lys1",-2.7%
same,% Inhibition,"AMPKa1,AMPKa2; 1µM, Lys2",7.4%
same,% Inhibition,MST4; 0.1µM,-26.3%
same,% Inhibition,MST4; 1µM,-30%
same,% Inhibition,PDHK1; 0.1µM,-3.7%
same,% Inhibition,PDHK1; 1µM,-3%
